Results from PubChem BioAssay (NCI).
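A five-concentration, 48-hour dose response in 96-well plates underlies each endpoint, interpolated linearly between surrounding concentrations. TGI: concentration producing complete growth inhibition.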

Legend:
Test in all cases: NCI anticancer screen, dose series, 48 h
MALME-3M melanoma = test system: MALME-3M melanoma
SF-295 CNS = test system: SF-295 CNS
SF-539 CNS = test system: SF-539 CNS
IGROV1 ovarian = test system: IGROV1 ovarian
MDA-MB-231 breast = test system: MDA-MB-231 breast
U251 CNS = test system: U251 CNS
MDA-MB-435 = test system: MDA-MB-435
KM12 colon = test system: KM12 colon
SF-268 CNS = test system: SF-268 CNS
DU-145 prostate = test system: DU-145 prostate
NCI-H23 lung = test system: NCI-H23 lung
MCF7 breast = test system: MCF7 breast
PC-3 prostate = test system: PC-3 prostate
A549 NSCLC = test system: A549 NSCLC
HCT-116 colon = test system: HCT-116 colon
UO-31 renal = test system: UO-31 renal
HS 578T breast = test system: HS 578T breast
TK-10 renal = test system: TK-10 renal
LOX IMVI melanoma = test system: LOX IMVI melanoma
HL-60(TB) leukemia = test system: HL-60(TB) leukemia

Row | Structure (SMILES) | TGI (MALME-3M melanoma) | TGI (SF-295 CNS) | TGI (SF-539 CNS) | TGI (IGROV1 ovarian) | TGI (MDA-MB-231 breast) | TGI (U251 CNS) | TGI (MDA-MB-435) | TGI (KM12 colon) | TGI (SF-268 CNS) | TGI (DU-145 prostate) | TGI (NCI-H23 lung) | TGI (MCF7 breast) | TGI (PC-3 prostate) | TGI (A549 NSCLC) | TGI (HCT-116 colon) | TGI (UO-31 renal) | TGI (HS 578T breast) | TGI (TK-10 renal) | TGI (LOX IMVI melanoma) | TGI (HL-60(TB) leukemia)
1 | CC(C)CCNC(=O)C(CC(C)C)NC(=O)[C@H]1O[C@@H]1C(=O)O (stereo not given in full) | > 100 µM | > 100 µM | > 100 µM | > 100 µM | > 100 µM | > 100 µM | > 100 µM | > 100 µM | > 100 µM | > 100 µM | > 100 µM | > 100 µM | > 100 µM | > 100 µM | > 100 µM | > 100 µM | > 100 µM | – | – | –
2 | CON(C)C(=O)[C@H]1C[C@@]1(C)CO | > 100 µM | > 100 µM | – | > 100 µM | > 100 µM | > 100 µM | > 100 µM | > 100 µM | > 100 µM | > 100 µM | > 100 µM | > 100 µM | > 100 µM | > 100 µM | > 100 µM | > 100 µM | > 100 µM | > 100 µM | – | –
3 | CC[C@]12C=CCN3CCC4(c5cc([C@@]6(C(=O)OC)CC7CN(CCc8c6[nH]c6ccccc86)C[C@@H]6CCCC[C@H]76)c(OC)cc5N(C)C4[C@](O)(C(=O)OC)C1OC(C)=O)[C@@H]32 (stereo not given in full) | 4.95 µM | – | < 0.01 µM | – | < 0.01 µM | < 0.01 µM | – | – | 16.5 µM | 14.8 µM | < 0.01 µM | – | < 0.01 µM | 14.6 µM | 1.73 µM | 8.58 µM | < 0.01 µM | 21.8 µM | 12.4 µM | –
4 | Cc1ccc(OCC2OC(n3cnc4nc(Nc5ccc(Cl)c(Cl)c5)nc(Cl)c43)CC2Oc2ccc(C)cc2)cc1 (stereo not given) | > 100 µM | > 100 µM | – | > 100 µM | > 100 µM | > 100 µM | > 100 µM | > 100 µM | > 100 µM | > 100 µM | > 100 µM | > 100 µM | > 100 µM | > 100 µM | > 100 µM | > 100 µM | > 100 µM | > 100 µM | – | –
5 | COc1ccc2c(=O)cc(-c3ccc(OC)c(OC)c3OC)oc2c1 | > 100 µM | > 100 µM | > 100 µM | > 100 µM | > 100 µM | > 100 µM | > 100 µM | > 85.7 µM | > 100 µM | > 100 µM | > 100 µM | – | > 100 µM | > 31.6 µM | > 100 µM | > 100 µM | > 100 µM | > 100 µM | > 100 µM | > 62.4 µM
6 | CC(C)(C)C1CCC2c3c([nH]c4ccccc34)C3C(=O)N(c4ccccc4Cl)C(=O)C3C2C1 (stereo not given) | 37.1 µM | 57.2 µM | – | > 100 µM | 24.6 µM | 50.6 µM | > 100 µM | – | 35.5 µM | 42.7 µM | 62.7 µM | – | 28 µM | 86.5 µM | 14.3 µM | 78.1 µM | 35.3 µM | 51.3 µM | 28.5 µM | 50.5 µM
7 | CCC1(CC)C(=O)N(C(=O)c2ccccc2)N(C(=O)c2ccc(Cl)cc2)C1=O | > 75 µM | > 75 µM | – | > 75 µM | > 75 µM | > 75 µM | > 75 µM | > 75 µM | > 75 µM | > 75 µM | > 75 µM | > 75 µM | > 75 µM | > 75 µM | > 75 µM | > 75 µM | > 75 µM | > 75 µM | > 75 µM | > 75 µM
8 | C/C(N)=C/C(=O)c1[nH]c(C(=O)O)cc1C1CCN(Cc2ccccc2)C1=O (stereo not given) | 50.2 µM | 49.6 µM | – | 94.1 µM | > 100 µM | > 100 µM | > 100 µM | > 100 µM | 60.8 µM | 84.3 µM | 47.9 µM | 95.8 µM | > 100 µM | > 100 µM | 63.8 µM | 75.2 µM | > 100 µM | > 100 µM | – | –
9 | Cc1cc(C)nc(NS(=O)(=O)c2ccc(Nc3c4ccccc4nc4c(C(=O)NC(CO)(CO)CO)cccc34)cc2)n1 | – | > 100 µM | – | > 100 µM | > 100 µM | 83.5 µM | 51.6 µM | 36.4 µM | > 100 µM | > 100 µM | > 100 µM | > 100 µM | > 100 µM | 73.2 µM | – | > 100 µM | > 100 µM | 68.9 µM | 42.2 µM | 97.9 µM
10 | O=[N+]([O-])c1ccc(N/N=C2/CC3=C2CCCCCCCCCC3)c([N+](=O)[O-])c1 | > 100 µM | > 100 µM | – | > 100 µM | > 100 µM | > 100 µM | > 100 µM | > 100 µM | > 100 µM | > 100 µM | > 100 µM | > 100 µM | > 100 µM | > 100 µM | > 100 µM | > 100 µM | > 100 µM | > 100 µM | – | –
11 | CC(=O)OCC1OC(N2C(c3ccccc3)=CC(c3ccco3)C(C#N)=C2S)C(OC(C)=O)C(OC(C)=O)C1OC(C)=O (stereo not given) | 13.6 µM | > 70.3 µM | 5.35 µM | > 67.1 µM | 8.65 µM | 8.6 µM | > 70.5 µM | > 100 µM | > 57.4 µM | > 88.2 µM | 23.7 µM | > 82.4 µM | > 38.6 µM | > 65.6 µM | 33.2 µM | 29.5 µM | 7.61 µM | 37.5 µM | > 46.4 µM | –
12 | N#Cc1ccc(-c2nc3c(N)nc(-c4ccccc4)nc3o2)cc1 | – | > 100 µM | 22.3 µM | > 100 µM | 46.2 µM | 27.7 µM | > 100 µM | > 100 µM | > 100 µM | > 100 µM | > 100 µM | > 100 µM | > 100 µM | > 100 µM | > 100 µM | > 100 µM | > 100 µM | > 100 µM | > 100 µM | > 100 µM
13 | O=c1oc2ccccc2c(O)c1C(c1cnc2ccccc2c1)c1c(O)c2ccccc2oc1=O | > 100 µM | – | – | > 100 µM | > 100 µM | > 100 µM | > 100 µM | > 100 µM | 67.2 µM | > 100 µM | > 100 µM | – | > 100 µM | – | > 100 µM | > 100 µM | 80.6 µM | > 100 µM | > 100 µM | 90 µM
